We go through five compounds from ChEMBL document CHEMBL5113527, “First-in-Class Hydrazide-Based HDAC6 Selective Inhibitor with Potent Oral Anti-Inflammatory Activity by Attenuating NLRP3 Inflammasome Activation” (J Med Chem, 2022).

The target in one series is Histone deacetylase 2 (Homo sapiens, UniProt Q92769). Description: Inhibition of HDAC2 (unknown origin).
For another series, the target named is Histone deacetylase 3 (Homo sapiens, UniProt O15379). Description: Inhibition of HDAC3 (unknown origin).
Histone deacetylase 3, sequence (O15379 whole entry): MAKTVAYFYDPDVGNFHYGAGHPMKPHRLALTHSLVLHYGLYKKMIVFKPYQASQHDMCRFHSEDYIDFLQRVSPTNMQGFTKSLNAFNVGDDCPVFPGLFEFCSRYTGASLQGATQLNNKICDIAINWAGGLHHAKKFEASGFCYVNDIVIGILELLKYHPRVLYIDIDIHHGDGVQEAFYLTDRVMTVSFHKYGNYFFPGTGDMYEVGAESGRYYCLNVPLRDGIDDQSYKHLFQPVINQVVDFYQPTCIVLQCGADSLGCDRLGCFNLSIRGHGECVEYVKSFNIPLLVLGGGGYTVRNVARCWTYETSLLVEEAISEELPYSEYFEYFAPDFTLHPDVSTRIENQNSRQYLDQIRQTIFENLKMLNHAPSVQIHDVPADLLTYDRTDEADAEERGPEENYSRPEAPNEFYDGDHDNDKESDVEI
The target of series [1] is T1, Histone deacetylase 1 (Homo sapiens, UniProt Q13547). Description: Inhibition of recombinant HDAC1 (unknown origin) using Boc-Lys(acetyl)-AMC as substrate preincubated for 1 hr followed by substrate addition and measured after 2 hrs by fluorescence based microplate reader analysis.
T1 sequence (Q13547 whole entry): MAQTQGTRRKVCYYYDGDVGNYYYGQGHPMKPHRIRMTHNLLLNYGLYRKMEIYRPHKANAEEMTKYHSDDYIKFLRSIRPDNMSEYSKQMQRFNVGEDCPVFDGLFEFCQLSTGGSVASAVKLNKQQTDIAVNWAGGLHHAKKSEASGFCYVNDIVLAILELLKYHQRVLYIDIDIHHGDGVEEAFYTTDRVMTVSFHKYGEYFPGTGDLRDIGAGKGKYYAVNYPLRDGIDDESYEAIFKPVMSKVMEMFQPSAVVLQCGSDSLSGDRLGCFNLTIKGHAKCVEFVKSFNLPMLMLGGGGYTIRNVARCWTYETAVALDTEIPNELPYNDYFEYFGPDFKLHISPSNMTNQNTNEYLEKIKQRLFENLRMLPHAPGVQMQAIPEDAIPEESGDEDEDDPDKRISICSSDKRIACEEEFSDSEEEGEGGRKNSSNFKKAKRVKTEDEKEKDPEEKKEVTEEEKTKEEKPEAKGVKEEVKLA
Series [2] deals with T1, Histone deacetylase 1. Description: Inhibition of HDAC1 (unknown origin).
The subject of series [3] is J774.A1. Put plainly: Inhibition of NLRP3 inflammasome activation in mouse J774.A1 cells assessed as cleavage of pro-caspase 1 to p20 measured at 5 to 20 microM after […] by Western blot analysis. The series is classed as functional, cell-based. To be noted: dose 5-20 µM. In general terms: Immunoblotting shows a protein as a band on a membrane.
Series [4] deals with J774.A1. Put plainly: Inhibition of NLRP3 inflammasome activation in mouse J774.A1 cells assessed as cleavage of pro-caspase 1 to p20 measured at 20 microM after […] by Western blot analysis. The series is classed as functional, cell-based. To be noted: DDE = dose-dependent effect.
Series [5] can be described thus: Inhibition of HDAC11(unknown origin) preincubated for 1 hr followed by substrate addition and measured after 2 hrs by fluorescence based microplate reader analysis. Further details: species or system Homo sapiens.
The nature of series [6]: Cmax in CD-1 mouse at 3 mg/kg, iv measured after 0.083 to 24 hrs by LC-MS/MS analysis. The series is classed as ADME, organism-based. Further details: time upper 24 hrs, time lower 0.083 hrs, dose 3 mg/kg, route iv. To be noted: in vivo.
Series [7] is described as follows: Cmax in CD-1 mouse at 30 mg/kg, po measured after 0.083 to 24 hrs by LC-MS/MS analysis. The series is classed as ADME, organism-based. On the set-up: time upper 24 hrs, time lower 0.083 hrs, dose 30 mg/kg, route po. To be noted: in vivo.
The nature of series [8]: AUC(0 to infinity) in CD-1 mouse at 3 mg/kg, iv measured after 0.083 to 24 hrs by LC-MS/MS analysis. Further details: dose 3 mg/kg, time upper 24 hrs, time lower 0.083 hrs, route iv. It is filed as ADME, organism-based. To be noted: in vivo.
Series [9] is described as follows: AUC(0 to infinity) in CD-1 mouse at 30 mg/kg, po measured after 0.083 to 24 hrs by LC-MS/MS analysis. The series is classed as ADME, organism-based. Further details: dose 30 mg/kg, time upper 24 hrs, time lower 0.083 hrs, route po. To be noted: in vivo.
Series [10] relates to J774.A1. Description: Inhibition of HDAC6/dynein interaction in mouse J774.A1 cells measured after 8 hrs by co-immunoprecipitation based Western blotting analysis. It is filed as cell-based.

Activity calls are given as the source filed them. The rule behind the calls is not given here.

For orientation: IC50 means the concentration that inhibits the measured activity by half. As usually defined, the Cmax is the peak of the concentration-time curve. Usually AUC stands for concentration integrated over time.

Histone deacetylase 2, sequence (Q92769 whole entry): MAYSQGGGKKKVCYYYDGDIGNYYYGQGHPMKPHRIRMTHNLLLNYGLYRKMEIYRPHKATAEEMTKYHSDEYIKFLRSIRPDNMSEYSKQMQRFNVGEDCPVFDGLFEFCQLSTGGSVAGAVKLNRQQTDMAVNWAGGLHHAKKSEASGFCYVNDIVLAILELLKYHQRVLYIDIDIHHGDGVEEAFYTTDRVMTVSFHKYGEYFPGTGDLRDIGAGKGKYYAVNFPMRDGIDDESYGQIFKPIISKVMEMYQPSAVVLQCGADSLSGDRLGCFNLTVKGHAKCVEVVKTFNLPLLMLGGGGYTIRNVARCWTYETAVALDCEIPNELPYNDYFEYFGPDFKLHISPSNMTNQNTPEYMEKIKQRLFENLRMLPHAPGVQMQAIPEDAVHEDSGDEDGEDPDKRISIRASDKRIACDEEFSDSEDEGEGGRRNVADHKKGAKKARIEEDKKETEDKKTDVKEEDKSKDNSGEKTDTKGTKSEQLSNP

For `O=C(NO)c1ccc(CN2CCCc3ccccc32)cc1`, the IC50 against Histone deacetylase 2 came out at 32.8 µM; against Histone deacetylase 3, 29.5 µM.

`O=C(CS)NCCCCNc1c(Cl)cc(Cl)c2cccnc12`: the IC50 on Histone deacetylase 1 [1] and against Histone deacetylase 1 [2] was 6.68 µM each time.

`CNS(=O)(=O)c1ccc(CCNC(=O)c2cc(Cl)ccc2OC)cc1`: in the series with J774.A1 [3], the outcome was Active. Besides, in the series with J774.A1 [4], the inhibition result was “Dde”.

In series [5], `CN1CCc2c(c3ccccc3n2Cc2ccc(C(=O)NO)cc2)C1` [TUBASTATIN A] registered an IC50 above 5 µM. Further, the Cmax in series [6] turned out to be 1240 ng/mL; in series [7], 135 ng/mL. The AUC is 227 ng·h/mL in [8] and 134 ng·h/mL in series [9]. Besides, the inhibition result with J774.A1 [10] was “Active”.

With `O=C(NO)c1ccc(CC(=O)N(CCO)c2ccccc2)cc1`, the IC50 at Histone deacetylase 1 [2] is 0.842 µM; against Histone deacetylase 2 it was 2.21 µM; at Histone deacetylase 3, 2.08 µM.
